Data reported in ChEMBL document CHEMBL6087456 (J Med Chem, 2025).
Calls of active or inactive are those of the source. No cut-off for these calls is given here.

How the values were obtained:
[1] = target: T1, Dihydroorotate dehydrogenase (quinone), mitochondrial (Plasmodium falciparum (isolate 3D7), UniProt Q08210); assay: Inhibition of N-terminal His6-tagged recombinant Plasmodium falciparum DHODH (158 to 569 residues) N-terminally truncated soluble domain extracted from Escherichia coli phage resistant BL21-DE3 using CoQD/DHA/DCIP as substrates
T1 sequence (Q08210 whole entry): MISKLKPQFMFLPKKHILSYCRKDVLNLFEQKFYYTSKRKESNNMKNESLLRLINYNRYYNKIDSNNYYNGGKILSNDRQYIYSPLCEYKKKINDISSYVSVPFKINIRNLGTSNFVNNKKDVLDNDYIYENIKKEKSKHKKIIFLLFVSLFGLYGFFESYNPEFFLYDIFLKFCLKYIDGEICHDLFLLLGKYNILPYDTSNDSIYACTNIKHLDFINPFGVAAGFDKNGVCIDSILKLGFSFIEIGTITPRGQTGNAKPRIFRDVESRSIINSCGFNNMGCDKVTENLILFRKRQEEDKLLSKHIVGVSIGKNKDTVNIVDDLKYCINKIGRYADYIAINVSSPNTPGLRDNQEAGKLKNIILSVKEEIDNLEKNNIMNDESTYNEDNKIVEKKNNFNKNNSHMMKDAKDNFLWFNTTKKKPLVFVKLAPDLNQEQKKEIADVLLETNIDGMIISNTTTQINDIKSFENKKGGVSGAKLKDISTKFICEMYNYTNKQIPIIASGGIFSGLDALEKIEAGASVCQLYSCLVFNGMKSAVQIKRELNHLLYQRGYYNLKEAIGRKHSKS

[2] = target: Dihydroorotate dehydrogenase (quinone), mitochondrial (Homo sapiens, UniProt Q02127); assay: Inhibition of C-terminal His6-tagged recombinant human DHODH (29 to 395 residues) N-terminally truncated soluble domain extracted from Escherichia coli phage resistant BL21-DE3 using CoQD/DHA/DCIP as substrates
Chain of Dihydroorotate dehydrogenase (quinone), mitochondrial (Homo sapiens, UniProt Q02127) (Q02127 whole entry, the tested form may be a part): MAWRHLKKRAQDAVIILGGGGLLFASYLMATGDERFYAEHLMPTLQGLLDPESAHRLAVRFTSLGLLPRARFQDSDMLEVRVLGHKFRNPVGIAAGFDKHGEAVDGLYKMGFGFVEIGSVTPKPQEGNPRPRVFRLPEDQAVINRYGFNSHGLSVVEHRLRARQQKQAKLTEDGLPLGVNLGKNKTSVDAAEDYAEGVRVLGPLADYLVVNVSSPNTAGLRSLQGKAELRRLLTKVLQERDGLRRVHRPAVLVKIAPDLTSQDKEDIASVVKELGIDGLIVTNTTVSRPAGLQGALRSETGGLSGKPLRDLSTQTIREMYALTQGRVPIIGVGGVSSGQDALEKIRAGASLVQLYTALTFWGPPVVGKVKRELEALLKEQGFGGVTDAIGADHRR

[3] = Plasma protein binding in rat measured for 6 hrs by rapid equilibrium dialysis; format: ADME, cell-free
[4] = target: Albumin (Homo sapiens, UniProt P02768); assay: Protein binding to albumin (unknown origin) in ALBUMAX medium; format: ADME; conditions: read-out: PB (converted)
Chain of Albumin (P02768 whole entry): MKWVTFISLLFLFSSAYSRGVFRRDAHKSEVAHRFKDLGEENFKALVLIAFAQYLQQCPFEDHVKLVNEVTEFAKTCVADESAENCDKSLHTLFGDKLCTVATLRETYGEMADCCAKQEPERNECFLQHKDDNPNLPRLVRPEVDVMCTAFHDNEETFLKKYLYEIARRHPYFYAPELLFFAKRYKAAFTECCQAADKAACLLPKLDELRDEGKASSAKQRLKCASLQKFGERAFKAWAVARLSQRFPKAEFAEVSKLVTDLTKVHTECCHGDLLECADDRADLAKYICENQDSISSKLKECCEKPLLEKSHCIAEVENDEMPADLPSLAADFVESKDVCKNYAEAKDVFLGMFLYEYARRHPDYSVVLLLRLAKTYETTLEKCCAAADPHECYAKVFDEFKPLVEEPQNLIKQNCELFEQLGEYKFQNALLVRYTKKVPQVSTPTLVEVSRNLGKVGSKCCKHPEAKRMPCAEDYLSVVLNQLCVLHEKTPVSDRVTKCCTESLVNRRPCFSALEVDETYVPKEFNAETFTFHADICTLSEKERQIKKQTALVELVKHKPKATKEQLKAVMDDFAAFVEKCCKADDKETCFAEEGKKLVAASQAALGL

[5] = Protein binding in human hepatocytes; format: ADME, cell-based, Hepatocyte; conditions: read-out: PB (converted)
[6] = Oral bioavailability in overnight-fasted male Sprague-Dawley rat at 3 mg/kg measured upto 72 hrs by LCMS analysis; format: ADME, organism-based; conditions: in vivo
[7] = Oral absorption in overnight-fasted male Sprague-Dawley rat at 3 mg/kg measured upto 72 hrs by LCMS analysis; format: ADME, organism-based; conditions: in vivo
[8] = target: T2, Cytochrome P450 1A2 (Homo sapiens, UniProt P05177); assay: Time-dependent inhibition of CYP1A2 in human liver microsomes; format: ADME, Microsome
T2 sequence (P05177 whole entry): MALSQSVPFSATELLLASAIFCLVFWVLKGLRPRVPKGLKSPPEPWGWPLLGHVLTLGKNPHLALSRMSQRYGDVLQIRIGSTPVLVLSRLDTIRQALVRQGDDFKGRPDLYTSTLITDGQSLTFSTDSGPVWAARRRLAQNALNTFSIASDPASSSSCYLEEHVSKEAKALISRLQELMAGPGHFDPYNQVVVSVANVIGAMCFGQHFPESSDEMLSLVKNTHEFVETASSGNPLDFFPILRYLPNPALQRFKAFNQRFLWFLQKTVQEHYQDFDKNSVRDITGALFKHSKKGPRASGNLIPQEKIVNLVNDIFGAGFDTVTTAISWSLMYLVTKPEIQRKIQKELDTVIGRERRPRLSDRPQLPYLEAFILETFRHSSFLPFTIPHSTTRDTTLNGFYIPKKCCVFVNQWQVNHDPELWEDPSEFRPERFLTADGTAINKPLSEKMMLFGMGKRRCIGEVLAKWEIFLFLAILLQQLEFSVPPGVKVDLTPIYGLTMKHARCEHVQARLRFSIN

[9] = target: T3, Cytochrome P450 2B6 (Homo sapiens, UniProt P20813); assay: Time-dependent inhibition of CYP2B6 in human liver microsomes; format: ADME, Microsome
T3 sequence (P20813 whole entry): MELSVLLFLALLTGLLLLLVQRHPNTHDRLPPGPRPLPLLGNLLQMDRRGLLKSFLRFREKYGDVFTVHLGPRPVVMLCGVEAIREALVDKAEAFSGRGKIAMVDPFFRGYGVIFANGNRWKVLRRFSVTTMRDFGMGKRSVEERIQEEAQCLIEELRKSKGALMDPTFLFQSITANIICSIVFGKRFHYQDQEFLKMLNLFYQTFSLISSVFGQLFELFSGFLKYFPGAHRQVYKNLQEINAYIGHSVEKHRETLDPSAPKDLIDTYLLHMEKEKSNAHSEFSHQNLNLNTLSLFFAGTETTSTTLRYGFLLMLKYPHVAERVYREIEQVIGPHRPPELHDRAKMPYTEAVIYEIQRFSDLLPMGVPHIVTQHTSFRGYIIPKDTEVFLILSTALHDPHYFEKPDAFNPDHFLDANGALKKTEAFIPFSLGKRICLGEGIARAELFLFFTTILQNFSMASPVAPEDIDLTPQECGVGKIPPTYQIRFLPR

[10] = target: Cytochrome P450 2C19 (Homo sapiens, UniProt P33261); assay: Time-dependent inhibition of CYP2C19 in human liver microsomes; format: ADME, Microsome
Chain of Cytochrome P450 2C19 (P33261 whole entry): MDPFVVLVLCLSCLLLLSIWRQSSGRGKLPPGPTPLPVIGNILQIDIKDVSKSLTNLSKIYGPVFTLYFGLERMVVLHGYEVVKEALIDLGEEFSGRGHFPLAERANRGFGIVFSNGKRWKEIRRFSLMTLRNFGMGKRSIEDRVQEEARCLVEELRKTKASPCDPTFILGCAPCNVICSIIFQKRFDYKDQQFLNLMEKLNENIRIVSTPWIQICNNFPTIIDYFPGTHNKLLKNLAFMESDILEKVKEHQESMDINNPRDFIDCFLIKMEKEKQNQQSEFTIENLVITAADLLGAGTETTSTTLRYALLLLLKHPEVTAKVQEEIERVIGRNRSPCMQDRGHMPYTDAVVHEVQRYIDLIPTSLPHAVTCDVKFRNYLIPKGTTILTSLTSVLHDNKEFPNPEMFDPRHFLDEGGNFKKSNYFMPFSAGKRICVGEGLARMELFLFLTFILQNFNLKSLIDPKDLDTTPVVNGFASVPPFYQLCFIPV

[11] = target: Cytochrome P450 3A5 (Homo sapiens, UniProt P20815); assay: Time-dependent inhibition of CYP3A5 in human liver microsomes; format: ADME, Microsome
Chain of Cytochrome P450 3A5 (P20815 whole entry): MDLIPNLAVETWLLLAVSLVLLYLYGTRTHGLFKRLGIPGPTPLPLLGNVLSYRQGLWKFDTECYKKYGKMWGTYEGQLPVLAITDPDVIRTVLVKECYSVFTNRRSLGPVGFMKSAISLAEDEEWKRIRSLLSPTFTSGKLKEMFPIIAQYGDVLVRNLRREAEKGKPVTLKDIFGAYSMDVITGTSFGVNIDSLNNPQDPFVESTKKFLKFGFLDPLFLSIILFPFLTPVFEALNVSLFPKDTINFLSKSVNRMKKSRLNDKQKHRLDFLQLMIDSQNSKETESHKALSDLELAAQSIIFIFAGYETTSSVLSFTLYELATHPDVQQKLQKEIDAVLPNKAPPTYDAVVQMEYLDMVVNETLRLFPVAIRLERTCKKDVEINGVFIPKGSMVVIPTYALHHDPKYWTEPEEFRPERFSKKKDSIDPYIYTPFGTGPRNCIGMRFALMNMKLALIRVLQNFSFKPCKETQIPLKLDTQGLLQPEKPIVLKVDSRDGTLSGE

[12] = target: Prostaglandin G/H synthase 1 (Homo sapiens) (UniProt P23219); assay: Inhibition of COX1 (unknown origin) at 10 uM relative to control
Chain of Prostaglandin G/H synthase 1 (Homo sapiens) (P23219 whole entry): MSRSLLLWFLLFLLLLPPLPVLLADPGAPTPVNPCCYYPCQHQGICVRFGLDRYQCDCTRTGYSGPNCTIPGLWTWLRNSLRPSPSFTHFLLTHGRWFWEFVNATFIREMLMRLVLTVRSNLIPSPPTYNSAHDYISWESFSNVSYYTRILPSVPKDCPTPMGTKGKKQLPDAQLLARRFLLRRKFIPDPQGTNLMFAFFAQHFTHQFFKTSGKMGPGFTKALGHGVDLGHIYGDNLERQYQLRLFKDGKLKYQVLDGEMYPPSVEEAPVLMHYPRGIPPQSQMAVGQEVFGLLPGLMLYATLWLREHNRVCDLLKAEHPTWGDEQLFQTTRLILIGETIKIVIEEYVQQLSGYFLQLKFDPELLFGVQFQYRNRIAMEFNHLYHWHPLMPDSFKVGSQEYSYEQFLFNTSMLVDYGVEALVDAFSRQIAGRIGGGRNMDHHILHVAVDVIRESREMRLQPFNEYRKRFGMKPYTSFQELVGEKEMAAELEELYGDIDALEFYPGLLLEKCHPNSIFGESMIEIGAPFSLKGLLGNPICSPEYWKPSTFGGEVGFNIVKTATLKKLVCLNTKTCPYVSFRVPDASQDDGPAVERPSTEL

[13] = Apparent half life in humanized SCID mouse model at 30 mg/kg, po; format: ADME, organism-based; conditions: in vivo, read-out: t1/2(app) (converted)
[14] = system: Plasmodium falciparum; assay: Prevention of re-infection of new erythrocytes in humanized SCID mouse model infected with erythrocyte asexual stage Plasmodium falciparum 3D7 0087/N9 at 1 to 30 mg/kg administered once daily for 6 days; format: functional, organism-based; conditions: dose 1-30 mg/kg, time 6.0 day
[15] = system: Plasmodium falciparum; assay: Prevention of pyknosis of rings in humanized SCID mouse model infected with erythrocyte asexual stage Plasmodium falciparum 3D7 0087/N9 at 1 to 30 mg/kg administered once daily for 6 days measured after 96 to […] post-dose; format: functional, organism-based; conditions: dose 1-30 mg/kg, time 6.0 day

Work on Cn1nc2c(=O)n(C3CC3)cnc2c1[C@](O)(c1cnc(C(F)(F)F)c(Cl)c1)C(F)(F)F yielded an IC50 [1] of 0.015 µM, an IC50 [2] greater than 30 µM and a PPB [3] of 97.2%. For the same compound, the fraction unbound [4] was 0.514, the fraction unbound [5] was 0.535 and the F [6] was greater than 89%. For the same compound, the Fa at 72 h [7] was 100%, the TDI [8] was “Not_active” and the TDI [9] was “Not_active”. For the same compound, the TDI [10] was “Not_active”, the TDI [11] was “Not_active” and the inhibition [12] was 50%. For the same compound, the half-life [13] was 7.8 h, the Activity [14] was “inactive” and the Activity [15] was “inactive”.
